# Laboratory results from the supplement of paper PMC5908809.
# Key:
# Experiment in all cases: relative IC50 (inflection point of fitted viability curve, relative to fitted max inhibition); higher = less sensitive
# Conditions in all cases: 72 h
# DERL-7 (IL-2 2.5 ng/mL) = system: DERL-7 (IL-2 2.5 ng/mL)
# Procedure: (§1)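 Drug sensitivity and resistance testing: 5 concentrations over a 10,000-fold range, 72 h at 37 °C, viability by CellTiter-Glo normalised to DMSO and benzethonium chloride controls. IC50 is the inflection point of a logistic fit (min fixed at 0, max fitted), so it is relative to the fitted maximal inhibition. Kept only where fitted max inhibition is at least 50%.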
# YT (IL-2 2.5 ng/mL) = system: YT (IL-2 2.5 ng/mL)
# Procedure: as §1
# [1] = system: normal primary NK cells, pool 1 (3 donors) (IL-2 2.5 ng/mL)
# Procedure: as §1
# NK-92 (IL-2 2.5 ng/mL) = system: NK-92 (IL-2 2.5 ng/mL)
# Procedure: as §1
# [2] = system: normal primary NK cells, pool 1 (3 donors), resting (IL-2 0 ng/mL)
# Procedure: as §1
# KHYG-1 (IL-2 2.5 ng/mL) = system: KHYG-1 (IL-2 2.5 ng/mL)
# Procedure: as §1
# KAI3 (IL-2 2.5 ng/mL) = system: KAI3 (IL-2 2.5 ng/mL)
# Procedure: as §1
# NK-YS (IL-2 2.5 ng/mL) = system: NK-YS (IL-2 2.5 ng/mL)
# Procedure: as §1
# SNK-6 (IL-2 2.5 ng/mL) = system: SNK-6 (IL-2 2.5 ng/mL)
# Procedure: as §1
# [3] = system: normal primary NK cells, pool 3 (3 donors) (IL-2 2.5 ng/mL)
# Procedure: as §1
# [4] = system: normal primary NK cells, pool 2 (3 donors) (IL-2 2.5 ng/mL)
# Procedure: as §1
# NKL (IL-2 2.5 ng/mL) = system: NKL (IL-2 2.5 ng/mL)
# Procedure: as §1
# IMC-1 (IL-2 20 ng/mL) = system: IMC-1 (IL-2 20 ng/mL)
# Procedure: as §1
SMILES,relative IC50 (DERL-7 (IL-2 2.5 ng/mL)),relative IC50 (YT (IL-2 2.5 ng/mL)),relative IC50 [1],relative IC50 (NK-92 (IL-2 2.5 ng/mL)),relative IC50 [2],relative IC50 (KHYG-1 (IL-2 2.5 ng/mL)),relative IC50 (KAI3 (IL-2 2.5 ng/mL)),relative IC50 (NK-YS (IL-2 2.5 ng/mL)),relative IC50 (SNK-6 (IL-2 2.5 ng/mL)),relative IC50 [3],relative IC50 [4],relative IC50 (NKL (IL-2 2.5 ng/mL)),relative IC50 (IMC-1 (IL-2 20 ng/mL))
O=C(/C=C/c1cccnc1)NCCCCC1CCN(C(=O)c2ccccc2)CC1 [Daporinad],0.00127 µM,0.00627 µM,0.00052 µM,0.00607 µM,0.00029 µM,0.00301 µM,0.00388 µM,0.00077 µM,0.00075 µM,0.00087 µM,0.00063 µM,0.00257 µM,0.00361 µM
COc1cccc2c1C(=O)c1c(O)c3c(c(O)c1C2=O)C[C@@](O)(C(C)=O)C[C@@H]3O[C@H]1C[C@H](N)[C@H](O)[C@H](C)O1 [Daunorubicin],0.0217 µM,0.0408 µM,0.0216 µM,0.0457 µM,0.0157 µM,0.0382 µM,0.0546 µM,0.0311 µM,0.0347 µM,0.042 µM,0.0208 µM,0.00374 µM,0.0192 µM
CCN(CC)C(=S)SSC(=S)N(CC)CC [Disulfiram],0.194 µM,25.7 µM,0.323 µM,30.1 µM,0.309 µM,2.3 µM,16.2 µM,0.987 µM,40.3 µM,0.32 µM,0.224 µM,0.256 µM,1.59 µM
CCOC(=O)CCNc1cc(N2CCc3ccccc3CC2)nc(-c2ccccn2)n1 [GSK-J4],2.48 µM,2.67 µM,2.1 µM,0.837 µM,1.28 µM,1.74 µM,3.34 µM,3.32 µM,3.02 µM,2.11 µM,3.28 µM,3.37 µM,1.23 µM
COC(=O)c1ccc2c(c1)NC(=O)/C2=C(\Nc1ccc(N(C)C(=O)CN2CCN(C)CC2)cc1)c1ccccc1 [Nintedanib],1.21 µM,2.58 µM,1.2 µM,1.07 µM,1.01 µM,1.72 µM,1.85 µM,1.7 µM,4.28 µM,2.73 µM,1.58 µM,0.902 µM,3.98 µM
COC(=O)C[C@](O)(CCCC(C)(C)O)C(=O)O[C@@H]1C(OC)=C[C@]23CCCN2CCc2cc4c(cc2[C@H]13)OCO4 [Omacetaxine],0.00754 µM,0.0175 µM,0.00662 µM,0.0257 µM,0.00115 µM,0.0352 µM,0.00632 µM,0.0307 µM,0.00673 µM,0.0106 µM,0.00502 µM,0.0298 µM,0.0336 µM
CN1CCN(c2cc(C(=O)Nc3ccc4c(c3)-c3c(c(C(N)=O)nn3-c3ccc(F)cc3)CC4)c(Cl)cn2)CC1 [PHA 408],1.35 µM,1.92 µM,2.59 µM,2.09 µM,2.14 µM,2.99 µM,0.94 µM,2.44 µM,1.62 µM,2.78 µM,2.1 µM,1.62 µM,2.97 µM
Cc1[nH]c2ccccc2c1CCNCc1ccc(/C=C/C(=O)NO)cc1 [Panobinostat],0.0125 µM,0.0212 µM,0.0129 µM,0.0134 µM,0.00589 µM,0.0163 µM,0.00594 µM,0.0175 µM,0.0143 µM,0.0135 µM,0.00738 µM,0.00813 µM,0.0299 µM
C[C@@H]1C[C@H]2O[C@@H]2/C=C\C=C\C(=O)Cc2c(Cl)c(O)cc(O)c2C(=O)O1 [Radicicol],0.0373 µM,0.423 µM,0.126 µM,0.13 µM,0.52 µM,0.209 µM,0.0721 µM,0.198 µM,0.0818 µM,0.132 µM,0.0752 µM,0.134 µM,0.31 µM
O=C(/C=C\n1cnc(-c2cc(C(F)(F)F)cc(C(F)(F)F)c2)n1)NNc1cnccn1 [Selinexor],0.0651 µM,0.0641 µM,0.0767 µM,0.168 µM,0.0242 µM,0.152 µM,0.0933 µM,0.166 µM,0.0483 µM,0.0808 µM,0.0524 µM,0.106 µM,0.497 µM
COc1cc([C@@H]2c3cc4c(cc3[C@@H](O[C@@H]3O[C@@H]5CO[C@@H](c6cccs6)O[C@H]5[C@H](O)[C@H]3O)[C@H]3COC(=O)[C@H]23)OCO4)cc(OC)c1O [Teniposide],0.0155 µM,0.122 µM,0.534 µM,0.0841 µM,0.139 µM,0.0278 µM,0.0188 µM,0.0133 µM,0.032 µM,1.25 µM,0.965 µM,0.01 µM,0.0203 µM
COc1cc2c(NC3CCN(C(C)C)CC3)nc(C3CCCCC3)nc2cc1OCCCN1CCCC1 [UNC0638],2.12 µM,3.05 µM,3.45 µM,1.66 µM,2.29 µM,2.54 µM,0.528 µM,2.57 µM,1.6 µM,3.36 µM,3.07 µM,2.29 µM,2.78 µM
